This is an account of results in patent publication US12357695B2, “Peptides and nanoparticles for intracellular delivery of molecules” (AADIGEN, LLC, priority 2019, dated 2025).

Entries after “also recorded” stand apart in the source; their conditions may differ.

In test [1] the test system is mice. Briefly: In vivo delivery of pGL4 plasmid DNA, intramuscular administration, bioluminescence imaging. As to conditions: IM, 2.5 μg pGL4 plasmid. How it is done: FIGS. 7A-7B show the potency of ADGN-peptide variants for in vivo delivery of Luciferase expressing plasmid pGL4 via intramuscular administration in mice. ADGN-peptide/pGL4 luc particles containing 2.5 μg plasmid DNA were formed in sterile water, and then diluted in 5% sucrose. Mice received IV injection of 25 μl ADGN-peptide/pGL4 complexes. Luciferase expression was monitored by bioluminescence imaging after 12 h, 24 h and 48h (A). FIG. 7B show bioluminescence imaging at 24 hr in control and treated groups.
(§1) Stable ADGN-peptides/pGL4.11 DNA were evaluated for in vivo delivery of Luciferase mRNA via intravenous and intramuscular administrations. Animals were treated with single dose of pGL4.11 plasmid DNA of 5 μg. via IV and 2.5 μg via intramuscular administration.
For IM administration, mice received 25 μl (2.5 μg of pGL4 plasmid) IV injection of either ADGN-100/PGL4, ADGN-106/PGL4, ADGN-100RI/PGL4, ADGN-100hydro1/PGL4, ADGN-100hydro6/PGL4, ADGN-100 stearyl/PGL4 or ADGN-100/PGL4 complexes containing 10% or 20% of ADGN-100PEG (2 animals per group). As control, mice from group 3 (2 animals per group) received IV injection of 25 μl of naked PGL4 plasmid (2.5 μg).
(§2) Luciferase expression was monitored by bioluminescence. Bioluminescence imaging was performed after 12, 24, 48 and 72 hrs. Mice received an i.p. injection of 150 μg/g luciferin for noninvasive bioluminescence imaging (IVIS Kinetic; PerkinElmer, Waltham, MA, USA).

The test system of the next test is mice or rat models. Briefly: Summary of cargo delivery to targeted organ (Table 1). The test is classed as in vivo. Conditions: cargoes and route (IV, IM, SQ, NB) per peptide as listed in Table 1. The source says:
Table 1 lists a summary of cell-penetrating peptides that have been proven successful in delivering various cargo molecules to on or more targeted organ (e.g., by intravenous (IV), intramuscular (IM), or subcutaneous (SQ) administration, or intratraccheal instillation or nebulization (NB)) in mice or rat models.

The test system of test [2] is mice. Kind of test: In vivo delivery of pGL4 plasmid DNA, intravenous administration, bioluminescence imaging. Conditions: 5 μg pGL4 plasmid. On the procedure:
FIGS. 6A-6C show the potency of ADGN-peptide variants for in vivo delivery of Luciferase expressing plasmid pGL4 via intravenous administration in mice. ADGN-peptide/pGL4 particles containing 5 μg plasmid DNA were formed in sterile water, and then diluted in 5% sucrose. Mice received IV injection of 100 μl ADGN-peptide/plasmid complexes. pGL4 Luciferase expression was monitored by bioluminescence imaging after 12 h, 24h, 48h and 72h. […] Results were then expressed as values relative to day 0.
as §1
pGL4.11 DNA plasmid (5 μg) in sterile water (GIBCO) were mixed with ADGN peptide (sterile water), volume for each sample was adjusted to 100 μl, with sterile water containing 5% Sucrose. Samples were mixed gently with vortex for 1 minute at low speed and incubated for 30 min at room temperature. Samples were filtered on 0.45 μm PES filters prior administration. For IV administration Mice received 100 μl IV injection of either ADGN-106/pGL4, ADGN-100/pGL4, ADGN-100RI/pGL4, ADGN-100-stearyl/PGL4, ADGN-100Hydro1/PGL4, ADGN-100Hydro2/PGL4, ADGN100 Hydro6/PGL4 or ADGN/PGL4 complexes containing 10% or 20% of ADGN-100PEG (3 animals per group). As control, mice from group 3 (2 animals per group) received IV injection of 100 μl of naked pGL4 plasmids (5 μg).
as §2

For test [3], the system named is mice. Briefly: In vivo delivery of Luciferase mRNA, intravenous administration, bioluminescence imaging. As to conditions: 5 μg Luc mRNA, single dose. On the procedure: FIGS. 4A-4D show the potency of ADGN-peptide variants for in vivo delivery of Luciferase mRNA via intravenous administration in mice. ADGN-peptide/luc mRNA particles containing 5 μg mRNA were formed in sterile water, and then diluted in 5% sucrose. Mice received IV injection of 100 μl ADGN-peptide/mRNA complexes. mRNA LUC expression was monitored by bioluminescence imaging after 12 h, 24 h, 48 h and 72 h. FIG. 4B show bioluminescence imaging at 24 hr in control and treated groups. Semi-quantitative data of luciferase signal in the liver (C) and in the lung (D) were obtained using the manufacturer's software (Living Image; PerkinElmer). Results were then expressed as values relative to day 0.
(§3) Stable ADGN-peptides/mRNA were evaluated for in vivo delivery of Luciferase mRNA via intravenous and intramuscular administrations. Animals were treated with single dose of 5 moU modified Luc mRNA of 5 μg. 5 moU modified Luc mRNA (5 μg) in sterile water (GIBCO) were mixed with ADGN peptide (sterile water), volume for each sample was adjusted to 100 μl, with sterile water containing 5% Sucrose. Samples were mixed gently with vortex for 1 minute at low speed and incubated for 30 min at room temperature. Samples were filtered on 0.45 μm PES filters prior administration. For IV administration Mice received 100 μl intravenous (IV) injection of either ADGN-106/mRNA, ADGN-100/mRNA, ADGN-106RI/mRNA, ADGN-100-stearyl/mRNA, ADGN-100Hydro1/mRNA, ADGN-100Hydro2 or ADGN/mRNA complexes containing 10% of ADGN-100PEG (3 animals per group). As control, mice from group 3 (2 animals per group) received IV injection of 100 μl of naked 5 moU modified Luc mRNA (5 μg). For IM administration, mice received 25 μl (5 μg mRNA) IV injection of either ADGN-100/mRNA, ADGN-106/mRNA, ADGN-106RI/mRNA or ADGN/mRNA complexes containing 10% or 20% of ADGN-100PEG (2 animals per group). As control, mice from group 3 (2 animals per group) received IV injection of 25 μl of naked 5 moU modified Luc mRNA (5 μg).
(§4) mRNA Luc expression was monitored by bioluminescence. Bioluminescence imaging was performed after 12, 24, 48 and 72 hrs. Mice received an i.p. injection of 150 μg/g luciferin for noninvasive bioluminescence imaging (IVIS Kinetic; PerkinElmer, Waltham, MA, USA).

Test [4] deals with mice. Briefly: In vivo delivery of Luciferase mRNA, intramuscular administration, bioluminescence imaging. As to conditions: IM, Luc mRNA. How it is done:
FIGS. 5A-5B show the potency of ADGN-peptide variants for in vivo delivery of Luciferase mRNA via intramuscular administration in mice. ADGN-peptide/luc mRNA particles containing 2.5 μg mRNA were formed in sterile water, and then diluted in 5% sucrose. Mice received […] injection o 25 μl ADGN-peptide/mRNA complexes. mRNA LUC expression was monitored by bioluminescence imaging after 12 h, 24 h and 48h (A). FIG. 5B show bioluminescence imaging at 24 hr in control and treated groups.
as §3, §4

For “Ac-YIGSR-(G)4-KWRSALWRWRLWRVRSWSR-NH2 (Ac-YIGSRGGGGKWRSALWRWRLWRVRSWSR-NH2) [ADGN-100-Hydro-1]”, the luciferase expression entry with mice [1] is reported as “no significant expression”. Further, the “Targeted Organ” value in the test on mice or rat models is reported as “Lung/Kidney/; also recorded: Liver”. For the same substance, the “luciferase expression and tissues” value in the test on mice [2] was “negligible luciferase expression”. The “mRNA / luciferase expression and tissues” value in the test with mice [3] was “negligible luciferase expression”.

Regarding “Ac-GYVS-Aun(CH2)6-ALWRALWRLWRSLWRLLWKA-NH2 [ADGN-106 hydro-6]”, in the test on mice or rat models, the “Targeted Organ” value was “Tumor/Pancreas/ and Lung”. In the test with mice [4], the “increase of luciferase expression in the muscle / efficiency relative to ADGN-106” value was 4 fold and the luciferase expression entry is on record as “mediated Luciferase expression following intramuscular (IM) administration”.
